Measurements taken from article PMC11407372, “New imidazolidindionedioximes and their Pt(II) complexes: synthesis and investigation of their antitumoral activities on breast cancer cells” (Turkish Journal of Chemistry, 2024).

Key:
[1] = test system: CCD-1079Sk healthy fibroblast cell line; assay: MTT cytotoxicity assay; assay type: cell-based; details: 24 h, mean ± standard deviation
Method: (§1) CCD-1079Sk healthy fibroblast cell line, MCF-7, and MDA-MB-231 breast cancer cell lines were used in this study. The cells were grown in DMEM/F12 medium containing 10% fetal bovine serum (FBS) and 100 U/mL penicillin/streptomycin at 37 °C in a humidified incubator with 5% CO2. After bringing 80% confluency, the cells were detached using a trypsin solution. For further experiments, cells were resuspended in the growth medium after collection and centrifugation.
(§2) To determine cytotoxicity, the MTT assay was performed using L1aPt-m, L1bPt-m, L1cPt-m, L1aPt-b, L1bPt-b, L1cPt-b, cisPt, and bicalutamide (bical) samples at 10 different concentrations ranging from 100 μM to 0.19 μM (100, 50, 25, 12.5, 6.25, 3.12, 1.56, 0.78, 0.39, and 0.19 μM). The samples were dissolved in DMSO and diluted with the medium. Initial DMSO concentration was kept below 1% to avoid toxicity from the solvent. Briefly, the cells were seeded to 96-well plates at 5 × 10^3 cells/well in a volume of 200 μL, and cells were inoculated overnight. After that, old medium was removed, 100 μL of fresh medium and 100 μL of sample were added to the wells. The cells were incubated with the samples for 24 h. At the end of incubation with the samples, 30 μL of 3-(4,5-dimethylthiazol-2-yl)-2,5-diphenyltetrazolium bromide (MTT) solution was added. After 3 h the medium was removed and 100 μL of DMSO was added to dissolve the formazan crystals. Then the absorbance values were recorded at 540 nm using an ELISA microplate reader (Synergy H1, BioTek). All the experiments were carried out in triplicates, and the results were presented as a mean ± standard deviation. The IC50 values of samples were calculated using a percentage of relative cell viability via GraphPad Prism 5. The viability percentages of cells were calculated using the following formula:
(§3) %relative cell viability=(Abssample/Abscontrol)×100.

[2] = test system: MCF-7 human breast cancer cell line; assay: MTT cytotoxicity assay; assay type: cell-based; details: mean ± standard deviation
Method: as §1, §2, §3

[3] = test system: MDA-MB-231 human breast cancer cell line; assay: MTT cytotoxicity assay; assay type: cell-based; details: mean ± standard deviation
Method: as §1, §2, §3

CCD-1079Sk cells = assay: Apoptosis assay (Annexin V/7-AAD, flow cytometry); assay type: cell-based; details: sample at IC50 concentration, 24 h
Method: (§4) FITC-Annexin V/7-AAD kit was used for the apoptosis experiment. Briefly, the cells were seeded into 12-well plates at 2 × 10^5 cells/well in 1 mL volume and cells were inoculated overnight. After that, 500 μL of fresh medium and 500 μL of sample at the concentration of IC50 were added to the wells. The cells were incubated with the samples for 24 h, then detached using 0.5 mL of trypsin solution, cells were collected and centrifuged at 3000 g for 3 min. The cells were washed with 200 μL of cell staining buffer, then dispersed in 100 μL of binding buffer. Following this, 5 μL of FITC-Annexin V and 10 μL of 7-AAD were added, and the mixture was incubated in the dark for 30 min. The samples were then analyzed by flow cytometry.
(§5) The Annexin V conjugated Alexa Fluor 488/7-AAD binding assay is based on the difference in fluorescence intensity between apoptotic and nonapoptotic cells stained with the fluorescent Annexin V/7-AAD, which is measured by flow cytometry. Therefore, an apoptosis assay was performed to determine the rate of live, apoptotic, and necrotic cells (Table 2, Figure S43). It is seen that compounds induce early and late apoptosis in MDA-MB-231 cells.

MCF-7 cells [4] = assay: Apoptosis assay (Annexin V/7-AAD, flow cytometry); assay type: cell-based, human; details: sample at IC50 concentration, 24 h
Method: as §4
as §5, with “It is seen that compounds induce early and late apoptosis in MDA-MB-231 cells.” left out

MDA-MB-231 cells [5] = assay: Apoptosis assay (Annexin V/7-AAD, flow cytometry); assay type: cell-based, human; details: sample at IC50 concentration, 24 h
Method: as §4, §5

MCF-7 cells [6] = assay: Cell cycle assay (PI, flow cytometry); assay type: cell-based, human; details: sample at IC50 concentration, 24 h; 59.5% in control cells
Method: (§6) The cell cycle kit was used for the cell cycle experiment. Briefly, the cells were seeded into 12-well plates in a volume of 1 mL at 2 × 10^5 cells/well, and cells were inoculated overnight. After that, 500 μL of fresh medium and 500 μL of the sample at the concentration of IC50 were added to the wells. The cells were incubated with the samples for 24 h, then detached using 0.5 mL of trypsin solution, cells were collected and centrifuged at 3000 g for 3 min. The collecting cells were washed with 1 mL of PBS and fixed with 1 mL of 70% cold ethanol at −20 °C for 24 h. After that, 200 μL of staining solution containing propidium iodide (PI) and RNAse reagents were added to the cells, and the cells were incubated for 30 min in the dark. Cell cycle profiles of synthesized compounds were analyzed using a flow cytometer (BD Accuri C6). The data were analyzed through BD software. Each assay was investigated in triplicate.

MDA-MB-231 cells [7] = assay: Cell cycle assay (PI, flow cytometry); assay type: cell-based, human; details: for MDA-MB-231 cell population in the G1-phase: sample at IC50 concentration, 24 h, 24.5% in control cells; for effect on cell cycle: summary in conclusion, MDA-MB-231 and/or MCF-7
Method: as §6

Row | Compound | IC50 ([1]; Fibroblast) | IC50 ([2]; Homo sapiens, MCF7, 24 h) | IC50 ([3]; Homo sapiens, MDA-MB-231, 24 h) | cell % Apoptotic, CCD-1079Sk (CCD-1079Sk cells) | cell % Apoptotic, MCF-7 (MCF-7 cells [4]) | cell % Necrotic, MCF-7 (MCF-7 cells [4]) | cell % Apoptotic, MDA-MB-231 (MDA-MB-231 cells [5]) | cell % Necrotic, MDA-MB-231 (MDA-MB-231 cells [5]) | IC50 [1] | IC50 ([2]; 24 h) | IC50 ([3]; 24 h) | cell % Necrotic, CCD-1079Sk (CCD-1079Sk cells) | MCF-7 cell population in the G1-phase (MCF-7 cells [6]) | MDA-MB-231 cell population in the G1-phase (MDA-MB-231 cells [7]) | effect on cell cycle (MDA-MB-231 cells [7]) | apoptosis induction in MCF-7 cells (MCF-7 cells [4])
1 | CC(O)(CS(=O)(=O)c1ccc(F)cc1)C(=O)Nc1ccc(C#N)c(C(F)(F)F)c1 (centres unmarked) [Bical, bicalutamide, reference compound] | 9.16 ± 3.18 µM | 3.78 ± 1.85 µM | 8.34 ± 6.39 µM | 5.10 ± 0.21% | 2.05 ± 0.03% | 6.35 ± 1.20% | 6.70 ± 0.28% | 1.95 ± 0.21% | – | – | – | – | – | – | – | –
2 | N.N.[Cl][Pt][Cl] [CisPt, cis-diamminedichloroplatinum(II), reference compound] | – | – | – | 5.00 ± 0.07% | 3.45 ± 0.03% | 1.10 ± 0.14% | 14.95 ± 0.74% | 1.55 ± 0.21% | 27.9 ± 7.24 µM | 3.98 ± 1.44 µM | 9.16 ± 7.74 µM | 3.90 ± 0.14% | – | – | – | –
3 | [O-]N=C1C(=NO)N(c2ccccc2)CN1c1ccccc1.[O-]N=C1C(=NO)N(c2ccccc2)CN1c1ccccc1.[Pt+2] [L 1a Pt-b] | – | – | – | 3.65 ± 0.03% | 4.65 ± 0.81% | 0.95 ± 0.35% | 7.65 ± 0.25% | 1.15 ± 0.07% | 47.8 ± 6.42 µM | 5.58 ± 2.29 µM | 5.26 ± 5.53 µM | 4.15 ± 0.21% | 64.4% | 49.6% | regulate the cell cycle and increase the G1 population | –
4 | O[N+]1=C2C(=[N+](O)[Pt-2]1([Cl])[Cl])N(c1ccccc1)CN2c1ccccc1 [L 1a Pt-m] | – | – | – | 2.65 ± 0.11% | – | 5.45 ± 1.06% | 9.35 ± 0.46% | 0.65 ± 0.21% | 59.5 ± 5.34 µM | 8.97 ± 5.28 µM | 9.63 ± 7.71 µM | – | – | 36.1% | regulate the cell cycle and increase the G1 population | induces more cancerous cells to undergo apoptosis
5 | [O-]N=C1C(=NO)N(c2ccc(F)cc2)CN1c1ccc(F)cc1.[O-]N=C1C(=NO)N(c2ccc(F)cc2)CN1c1ccc(F)cc1.[Pt+2] [L 1b Pt-b] | – | – | – | 1.90 ± 0.07% | 2.95 ± 0.11% | 2.20 ± 0.14% | 7.45 ± 0.39% | 2.65 ± 0.07% | 67.9 ± 5.11 µM | 9.57 ± 5.41 µM | 9.73 ± 7.28 µM | 1.25 ± 0.07% | – | – | – | –
6 | O[N+]1=C2C(=[N+](O)[Pt-2]1([Cl])[Cl])N(c1ccc(F)cc1)CN2c1ccc(F)cc1 [L 1b Pt-m] | – | – | – | – | 3.65 ± 0.18% | 0.95 ± 0.21% | 5.95 ± 0.25% | 0.65 ± 0.07% | 54.6 ± 6.25 µM | 6.91 ± 3.16 µM | 8.64 ± 7.71 µM | – | – | – | – | –
7 | [O-]N=C1C(=NO)N(c2ccc(F)cc2F)CN1c1ccc(F)cc1F.[O-]N=C1C(=NO)N(c2ccc(F)cc2F)CN1c1ccc(F)cc1F.[Pt+2] [L 1c Pt-b] | – | – | – | 1.85 ± 0.03% | 2.05 ± 0.03% | 5.35 ± 1.34% | 8.00 ± 0.21% | 3.20 ± 0.14% | 73.9 ± 4.96 µM | 5.9 ± 2.04 µM | 6.94 ± 5.57 µM | 1.80 ± 0.14% | 64.1% | – | regulate the cell cycle and increase the G1 population | induces more cancerous cells to undergo apoptosis
8 | O[N+]1=C2C(=[N+](O)[Pt-2]1([Cl])[Cl])N(c1ccc(F)cc1F)CN2c1ccc(F)cc1F [L 1c Pt-m] | – | – | – | 3.45 ± 0.03% | 5.95 ± 0.46% | 3.40 ± 0.71% | 6.20 ± 0.14% | 0.55 ± 0.07% | 45.2 ± 5.55 µM | 5.56 ± 2.39 µM | 25 ± 6.61 µM | 3.25 ± 0.07% | – | – | – | induces more cancerous cells to undergo apoptosis
